Measurements published in patent publication US20260374829A1, “METHODS AND PLATFORM RELATED TO FLUORESCENT PROTEIN BIOSENSORS” (BOARD OF REGENTS, THE UNIVERSITY OF TEXAS SYSTEM, priority 2023, published 2026).

Columns and labels:
[1] = system: free ADPR sensor (cpVenus integrated between amino acids 118 and 119 of Shewanella oneidensis NrtR, Uniprot Q8EFJ3; K435A, S436D, D122N), SEQ ID NO: 1; experiment: Fluorescence response of purified free ADPR sensor to ligands in vitro; format: binding; conditions: role: ligand; for sensor fluorescence response (in words): FIG. 5A; for sensor responsivity (in words): structurally related molecules, FIG. 5
Source text: (§1) The sensor is based on a circularly-permutated single fluorescent protein design (Baird et al, 1999 PNAS and reviewed in Nasu et al, 2021 Nat Chem Biol). For the fluorescence readout, the GFP-derived fluorescent protein, Venus, was used. Venus was circularly permutated and reforms to its fluorescent beta barrel fold by introducing a cut between amino acids 144 and 145 and connecting its original N- and C-termini with a 5 amino acid GGSGG linker sequence (circularly permutated Venus now referred to as cpVenus or cpV). Circular permutation permits attachment of an analyte binding domain in close proximity to the chromophore of Venus. The analyte binding domain confers selectivity of ligand binding to the sensor. The Nudix-like bacterial transcription factor NrtR from Shewanella oneidensis was used that is an ADPR-dependent transcriptional repressor (Rodionov et al, 2008 Nucleic Acids Res; Gao et al, 2019 eLIFE). The cpV protein was integrated between amino acids 118 and 119 in the sequence of NrtR (Uniprot Q8EFJ3).
Based on these analyses, cpV integrated into site 118/119 in NrtR was chosen for further analyses. This site is adjacent to the hinge region of the ligand-binding site, and it is within an alpha-helix that undergoes a disruptive loss of secondary structure when free ADPR binds (FIG. 1). The model is that this structural change is transduced to the nearby chromophore of cpV to cause a change in fluorescence intensity. This may occur through disruption of the chromophore or shifting the pKa of the chromophore.
Due to the compact nature of NrtR, attempts to use truncation to eliminate the DNA-binding domain appeared to destabilize the whole protein and thus could not be used. Instead, three point mutations were identified and used to ablate the outward facing overall positive change on this domain. These point mutations are distinct from the ligand-binding domain. The specific sites and their mutations (K435A and S436D) were identified through empirical screening and it was determined that in combination they alleviated aggregation of the sensor when it was ectopically expressed (FIG. 2).
The mutation D122N was also incorporated to reduce the number of polar and charged side-chains in proximity to the sensor's chromophore. The rationale was that charged residues could shift the local pKa of the chromophore promoting in its protonation. Introduction of D122N improved the brightness of the sensor and stabilized its pH-sensitivity between pH 7.4-8.0 (FIG. 3)
The sequence of the free ADPR sensor is shown in SEQ ID NO: 1.
The purified sensor (FIG. 4) decreased in fluorescence intensity with addition of free ADPR. At high concentrations, it saturated with ~80% diminishment of sensor brightness that represented an […] dose-dependent response (FIG. 4B, red). […] It was determined that the sensor responds to free ADPR with a Kd~2 μM±1 μM and is thus poised to detect intracellular free ADPR concentrations (Heiner, et al, 2006 Biochem J; Gasser and Guse, 2005 J Chromatogr B Analyt Technol Biomed Life Sci; Gasser et al, 2006 J Biol Chem).

[2] = system: PARP1/2; experiment: Free ADPR sensor response in live cells after acute H2O2 treatment (confocal imaging), with PARP1/2 inhibitor; format: cell-based; conditions: role: inhibitor (PARP1/2), FIG. 7
Experimental: (§2) Values are mean (F/F0)±SD, analyzed by confocal microscopy.
(§3) With confocal imaging, it was determined that the free ADPR sensor responded in live cells to an accumulation of free ADPR upon oxidation stress by acute H2O2 treatment (FIG. 7). In this experimental paradigm, H2O2 induces PARP1/2 to generate poly-ADPR chains, and due to the activities of glycohydrolases, this in turn leads to increased levels of free ADPR monomers. […] The generation of free ADPR was confirmed by a GCaMP7s sensor that monitored the resulting Ca^2+ influx from activation of co-expressed TRPM2 (FIG. 7B).

[3] = system: free ADPR sensor; experiment: Free ADPR sensor response in live cells to H2O2 treatment (confocal microscopy); format: cell-based; conditions: role: activator (oxidation stress), acute H2O2 treatment, FIG. 7
Experimental: as §2, §3

[4] = system: TRPM2; experiment: TRPM2 response in live cells to H2O2 treatment, Ca2+ influx reported by GCaMP7s; format: cell-based; conditions: role: activator (via increased free cytosolic ADPR), GCaMP7s readout, FIG. 7B
Experimental: as §2, §3

[5] = system: free ADPR sensor no binding control R98E (cpVenus in Shewanella oneidensis NrtR, Uniprot Q8EFJ3; binding pocket mutant R98E), SEQ ID NO: 2; experiment: Fluorescence response of non-binding control sensor to ligands in vitro; conditions: role: ligand, FIG. 4B
Source text: as §1
The purified sensor (FIG. 4) decreased in fluorescence intensity with addition of free ADPR. At high concentrations, it saturated with ~80% diminishment of sensor brightness that represented an ~4-fold dose-dependent response (FIG. 4B, red). […]

SMILES	sensor fluorescence response (in words) [1]	other results
Nc1ncnc2c1ncn2[C@@H]1O[C@H](COP(=O)(O)OP(=O)(O)OC[C@H]2O[C@@H]([n+]3cccc(C(=O)O)c3)[C@H](O)[C@@H]2O)[C@@H](O)[C@H]1O [NAAD^+]	does not respond	
Nc1ncnc2c1ncn2[C@@H]1O[C@H](COP(=O)(O)OP(=O)(O)OP(=O)(O)O)[C@@H](O)[C@H]1O [ATP, adenosine triphosphate]	does not respond	sensor responsivity (in words) [1]: minimal responsivity
CC(=O)O[C@H]1C(O)O[C@H](COP(=O)(O)OP(=O)(O)OC[C@H]2O[C@@H](n3cnc4c(N)ncnc43)[C@H](O)[C@@H]2O)[C@H]1O (stereo partly drawn) [O-Acetyl ADPR]	responds	
O=C(CO)[C@H](O)[C@H](O)COP(=O)(O)O [Ribulose-5-Phosphate]	does not respond	
Nc1ncnc2c1ncn2[C@@H]1O[C@H](COP(=O)(O)O)[C@@H](O)[C@H]1O [AMP, adenosine monophosphate]	does not respond	
Nc1ncnc2c1ncn2[C@@H]1O[C@H](COP(=O)(O)OP(=O)(O)O)[C@@H](O)[C@H]1O [ADP, adenosine diphosphate]	does not respond	sensor responsivity (in words) [1]: minimal responsivity
NC(=O)C1=CN([C@@H]2O[C@H](COP(=O)(O)OP(=O)(O)OC[C@H]3O[C@@H](n4cnc5c(N)ncnc54)[C@H](O)[C@@H]3O)[C@@H](O)[C@H]2O)C=CC1 [NADH, nicotinamide adenine dinucleotide]	does not respond	
Nc1ncnc2c1ncn2[C@H]1C[C@H](O)[C@@H](COP(=O)(O)OP(=O)(O)OC[C@H]2OC(O)[C@H](O)[C@@H]2O)O1 (stereo partly drawn) [2′-deoxy ADPR]	responds	
Nc1ncnc2c1ncn2[C@@H]1O[C@@H]2COP(=O)(O)OP(=O)(O)OC[C@H]3OC(O[C@@H]1[C@@H]2O)[C@H](O)[C@@H]3O [2′-cyclic ADPR]	does not respond	
NC(=O)c1ccc[n+]([C@@H]2O[C@H](COP(=O)(O)OP(=O)(O)OC[C@H]3O[C@@H](n4cnc5c(N)ncnc54)[C@H](O)[C@@H]3O)[C@@H](O)[C@H]2O)c1 [NAD^+, oxidized nicotinamide adenine dinucleotide]	does not respond	
O=C(c1cc(Cc2n[nH]c(=O)c3ccccc23)ccc1F)N1CCN(C(=O)C2CC2)CC1 [olaparib]		effect on H2O2-induced free ADPR sensor responses (in words) [2]: eliminated sensor responses
Nc1ncnc2c1ncn2[C@@H]1O[C@@H]2COP(=O)(O)OP(=O)(O)OC[C@H]3OC(O[C@H]2[C@H]1O)[C@H](O)[C@@H]3O [3′-cyclic ADPR]	does not respond	
Nc1ncnc2c1ncn2[C@@H]1O[C@H](COP(=O)(O)OP(=O)(O)OC[C@H]2OC(O)[C@H](O)[C@@H]2O)[C@@H](O)[C@H]1OP(=O)(O)O (stereo partly drawn) [phospho ADPR]	responds	
Nc1ncnc2c1ncn2[C@@H]1O[C@H](COP(=O)(O)OP(=O)(O)OC[C@H]2O[C@@H]([n+]3cccc(C(=O)O)c3)[C@H](O)[C@@H]2O)[C@@H](O)[C@H]1OP(=O)(O)O [NaADP^+]	does not respond	
N=c1c2ncn3c2ncn1[C@@H]1O[C@H](COP(=O)(O)OP(=O)(O)OC[C@H]2O[C@@H]3[C@H](O)[C@@H]2O)[C@@H](O)[C@H]1O [cyclic ADPR]	does not respond	
OO [H2O2]		free ADPR sensor response to accumulation of free ADPR (in words) [3]: responded; TRPM2 response, influx of intracellular Ca2+ (in words) [4]: responds with an influx of intracellular Ca^2+
Nc1ncnc2c1ncn2[C@@H]1O[C@H](COP(=O)(O)OP(=O)(O)OC[C@H]2OC(O)[C@H](O)[C@@H]2O)[C@@H](O)[C@H]1O (stereo partly drawn) [free ADPR, Adenosine 5′Di-Phosphate Ribose]	responds	fluorescence intensity with increasing free ADPR concentrations (in words) ([1]; FIG. 4B, mean of n=3): decreases; diminishment of sensor brightness at saturation ([1]; at high concentrations (saturated)): ~ 80%; dose-dependent response (fold) ([1]; fluorescence intensity, at saturation): ~ 4 fold; response of binding mutant to free ADPR (in words) [5]: did not respond
